Experimental data published in patent publication US8486940B2, “Inhibitors” (Probiodrug AG, priority 2009, dated 2013).

Each molecule was assayed against hQC (Homo sapiens (Human), UniProt Q16769) (assay: QC inhibitor assay (fluorometric / spectrophotometric QC activity assays)).
Type: biochemical
Procedure: Excitation/emission wavelengths were 320/410 nm.
This novel assay was used to determine the kinetic parameters for most of the QC substrates. […] Samples consisted of the respective QC substrate, 0.3 mM NADH, 14 mM α-Ketoglutaric acid and 30 U/ml glutamate dehydrogenase in a final volume of 250 μl. Reactions were started by addition of QC and persued by monitoring of the decrease in absorbance at 340 nm for 8-15 min.
All samples were measured at 30° C., using either the […]uor Plus or the Sunrise (both from TECAN) reader for microplates. Kinetic data was evaluated using GraFit software.
For inhibitor testing, the sample composition was the same as described above, except of the putative inhibitory compound added. For a rapid test of QC-inhibition, samples contained 4 mM of the respective inhibitor and a substrate concentration at 1 KM. For detailed investigations of the inhibition and determination of K,-values, influence of the inhibitor on the auxiliary enzymes was investigated first. […] The inhibitory constant was evaluated by fitting the set of progress curves to the general equation for competitive inhibition using GraFit software.

Sequence of hQC (Q16769 29-361): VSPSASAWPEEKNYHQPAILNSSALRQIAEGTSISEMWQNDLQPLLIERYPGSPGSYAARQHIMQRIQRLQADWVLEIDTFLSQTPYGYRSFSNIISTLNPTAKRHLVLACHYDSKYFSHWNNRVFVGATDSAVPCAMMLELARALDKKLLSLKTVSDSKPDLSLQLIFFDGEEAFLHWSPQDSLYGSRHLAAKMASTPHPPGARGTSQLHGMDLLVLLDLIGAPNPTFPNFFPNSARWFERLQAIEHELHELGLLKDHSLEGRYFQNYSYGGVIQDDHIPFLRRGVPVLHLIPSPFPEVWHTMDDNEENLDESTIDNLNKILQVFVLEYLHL

IC50, < 10 µM:
O=C1NCC(C2CCCCC2)N1c1ccc2[nH]cnc2c1 (centres unmarked) [Example 2, 1-(1H-benzo[d]imidazol-5-yl)-5-cyclohexylimidazolidin-2-one]
O=C1NCC(c2ccc(N3CCCCC3)cc2)N1c1ccc2[nH]cnc2c1 (centres unmarked) [Example 175, 1-(1H-benzo[d]imidazol-5-yl)-5-(4-(piperidin-1-yl)phenyl)imidazolidin-2-one]
CC(C)[C@H]1COC(=O)N1c1ccc2[nH]cnc2c1 [Example 68, (S)-3-(1H-benzo[d]imidazol-5-yl)-4-isopropyloxazolidin-2-one]
S=C1CSC(c2ccccc2)N1c1ccc2[nH]cnc2c1 (centres unmarked) [Example 118, 3-(1H-benzo[d]imidazol-5-yl)-2-phenylthiazolidine-4-thione]
O=C1NCC(c2ccccc2)N1c1ccc2[nH]cnc2c1 (centres unmarked) [Example 3, 1-(1H-benzo[d]imidazol-5-yl)-5-phenylimidazolidin-2-one]
COc1ccc(C2CNC(=O)N2c2ccc3[nH]cnc3c2)cc1 (centres unmarked) [Example 5, 1-(1H-benzo[d]imidazol-5-yl)-5-(4-methoxyphenyl)imidazolidin-2-one]
O=C1CSC(c2ccsc2)N1c1ccc2nc[nH]c2c1 (centres unmarked) [Example 116, 3-(1H-benzo[d]imidazol-6-yl)-2-(thiophen-3-yl)thiazolidin-4-one]
COc1ccc(C2CCCN2c2ccc3[nH]cnc3c2)cc1 (centres unmarked) [Example 102, 5-(2-(4-methoxyphenyl)pyrrolidin-1-yl)-1H-benzo[d]imidazole]
